Results as given in patent publication US20250296922A1, “POLYSUBSTITUTED PYRROLIDINE DERIVATIVE, PREPARATION METHOD THEREFOR AND USE THEREOF” (SHANGHAI WENNAI THERAPEUTICS CO LTD, priority 2023, published 2025).
Where two headings read alike, the source gives them in different places.

Key:
CYP1A2 = CYP1A2 (Homo sapiens (Human), UniProt P05177); test: Human liver microsomal CYP inhibition test, CYP1A2; type: in vitro ADME
Description: (§1) 3.1 Buffer solutions: (1) potassium phosphate 100 mM; (2) magnesium chloride, 33 mM;
(§2) 3.2.3 Reservoir for compounds to be tested: Dissolving the compounds to be tested in DMSO to form a 10 mM DMSO solution.
(§3) 3.4.1 Preparation of human liver microsomal working solution (1.27×) (final concentration: 0.2 mg/mL)
(§4) 3.5.3 Adding 20 μL of substrate solution to the appropriate wells and 20 μL of potassium phosphate buffer to the blank wells;
(§5) 3.5.4 Adding 2 μL of different concentrations of target compounds (final concentrations from 0.05 μM to 50 μM, 7 concentrations in total) or standard inhibitors to each well, with 2 μL of methanol solution in the non-inhibitor and blank wells;
(§6) 3.5.5 Adding 1.012 mL of liver microsomes to 78.988 mL of potassium phosphate buffer, then adding 158 μL of liver microsomes solution to all wells; preheating the well plate for 10 minutes in a 37° C. water bath;
(§7) 3.5.6 Weighing 129.1 mg NADPH (purchased from SyncoZymes Co. Ltd.) and adding to 15.0 mL of 33 Mm MgCl2 solution to give a 10 mM concentration, adding 20 μL to each well;
(§8) 3.5.7 Mixing and incubating the well plate in a 37° C. water bath for 10 minutes, then adding 400 μL of cold termination solution at the appropriate time point;
(§9) 3.5.8 Centrifuging the sample at 4000 rpm for 20 minutes to precipitate the protein. Transferring 200 μL of supernatant to 100 μL of HPLC water and shaking for 10 minutes. The samples were analyzed by LC/MS/MS;
(§10) Percentage inhibition was plotted for blank control and different concentrations of target compounds by using XL fitting or SigmaPlot and the data were analyzed by non-linear regression. IC50 values were determined by using either 3-parameter or 4-parameter logistic equations.

CYP2D6 = CYP2D6 (Homo sapiens (Human), UniProt P10635); test: Human liver microsomal CYP inhibition test, CYP2D6; type: in vitro ADME; conditions: human liver microsomes 0.2 mg/mL; substrate Dextromethorphan
Chain of CYP2D6 (P10635 whole entry): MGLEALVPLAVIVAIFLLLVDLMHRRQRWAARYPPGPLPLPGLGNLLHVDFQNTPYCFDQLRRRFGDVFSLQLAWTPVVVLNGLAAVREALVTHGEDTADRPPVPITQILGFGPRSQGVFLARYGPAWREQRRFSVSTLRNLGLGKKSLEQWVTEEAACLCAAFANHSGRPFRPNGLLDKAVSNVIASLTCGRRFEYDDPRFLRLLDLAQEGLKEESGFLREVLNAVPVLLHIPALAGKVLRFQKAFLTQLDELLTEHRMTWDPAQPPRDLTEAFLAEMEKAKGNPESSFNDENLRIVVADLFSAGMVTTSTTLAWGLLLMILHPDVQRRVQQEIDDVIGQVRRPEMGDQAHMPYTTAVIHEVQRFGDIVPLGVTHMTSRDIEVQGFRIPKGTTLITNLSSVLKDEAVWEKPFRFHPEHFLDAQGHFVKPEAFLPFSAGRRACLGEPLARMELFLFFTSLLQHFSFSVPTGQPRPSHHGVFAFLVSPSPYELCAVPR
Description: as §1, §2, §3, §4, §5, §6, §7, §8, §9, §10

Nav1.8 sodium channel = Nav1.8 sodium channel (Homo sapiens (Human), UniProt Q9Y5Y9); test: NaV1.8 blocking activity, manual patch clamp; type: cell-based; conditions: CHO cell line stably expressing Nav1.8
Chain of Nav1.8 sodium channel (Q9Y5Y9 whole entry): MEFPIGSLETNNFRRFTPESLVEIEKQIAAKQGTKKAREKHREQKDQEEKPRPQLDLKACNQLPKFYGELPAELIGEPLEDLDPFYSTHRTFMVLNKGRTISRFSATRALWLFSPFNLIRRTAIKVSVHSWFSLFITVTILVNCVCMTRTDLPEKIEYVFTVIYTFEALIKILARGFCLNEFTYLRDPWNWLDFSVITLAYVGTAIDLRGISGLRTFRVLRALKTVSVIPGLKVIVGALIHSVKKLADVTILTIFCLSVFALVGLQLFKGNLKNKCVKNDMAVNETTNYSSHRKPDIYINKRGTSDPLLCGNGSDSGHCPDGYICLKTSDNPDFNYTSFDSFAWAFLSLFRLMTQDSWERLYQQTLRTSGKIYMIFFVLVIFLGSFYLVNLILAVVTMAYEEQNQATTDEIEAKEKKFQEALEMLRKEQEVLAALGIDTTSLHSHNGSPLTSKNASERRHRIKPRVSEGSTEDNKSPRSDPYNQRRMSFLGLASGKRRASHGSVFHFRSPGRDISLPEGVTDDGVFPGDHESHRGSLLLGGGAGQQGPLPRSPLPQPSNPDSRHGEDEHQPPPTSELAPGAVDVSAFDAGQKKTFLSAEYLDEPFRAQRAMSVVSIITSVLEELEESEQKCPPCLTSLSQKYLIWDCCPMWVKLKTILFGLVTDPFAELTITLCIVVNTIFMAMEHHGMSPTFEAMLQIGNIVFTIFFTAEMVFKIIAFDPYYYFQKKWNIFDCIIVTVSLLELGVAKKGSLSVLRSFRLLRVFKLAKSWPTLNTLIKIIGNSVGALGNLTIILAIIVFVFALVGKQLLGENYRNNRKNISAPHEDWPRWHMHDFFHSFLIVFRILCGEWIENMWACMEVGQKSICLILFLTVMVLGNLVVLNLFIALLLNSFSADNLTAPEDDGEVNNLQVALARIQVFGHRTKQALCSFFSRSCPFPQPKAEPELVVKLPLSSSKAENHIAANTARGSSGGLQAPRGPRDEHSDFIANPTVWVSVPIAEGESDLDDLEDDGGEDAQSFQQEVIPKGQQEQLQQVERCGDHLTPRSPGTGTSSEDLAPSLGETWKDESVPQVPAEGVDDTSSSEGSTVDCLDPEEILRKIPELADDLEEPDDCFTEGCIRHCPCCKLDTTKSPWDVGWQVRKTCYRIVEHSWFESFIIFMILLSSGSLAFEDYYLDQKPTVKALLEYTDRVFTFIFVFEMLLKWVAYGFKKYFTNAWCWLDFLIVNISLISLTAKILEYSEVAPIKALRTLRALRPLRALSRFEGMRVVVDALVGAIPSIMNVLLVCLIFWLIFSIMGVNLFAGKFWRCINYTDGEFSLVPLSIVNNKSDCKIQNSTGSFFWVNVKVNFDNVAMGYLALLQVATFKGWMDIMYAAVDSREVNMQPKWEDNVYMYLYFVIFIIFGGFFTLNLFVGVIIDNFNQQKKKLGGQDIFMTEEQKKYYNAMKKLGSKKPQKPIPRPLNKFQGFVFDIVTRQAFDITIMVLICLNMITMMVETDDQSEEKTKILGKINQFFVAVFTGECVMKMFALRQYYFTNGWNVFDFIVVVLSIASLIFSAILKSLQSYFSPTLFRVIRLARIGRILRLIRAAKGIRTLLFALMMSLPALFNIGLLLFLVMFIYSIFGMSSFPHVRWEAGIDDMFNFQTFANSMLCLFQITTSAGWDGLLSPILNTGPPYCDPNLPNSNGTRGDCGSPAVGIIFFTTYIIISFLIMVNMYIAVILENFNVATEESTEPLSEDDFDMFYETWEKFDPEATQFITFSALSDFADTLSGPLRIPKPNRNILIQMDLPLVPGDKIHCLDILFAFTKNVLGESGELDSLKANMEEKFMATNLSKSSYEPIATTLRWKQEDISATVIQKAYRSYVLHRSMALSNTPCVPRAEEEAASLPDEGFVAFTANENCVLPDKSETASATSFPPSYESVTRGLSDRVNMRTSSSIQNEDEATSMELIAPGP
Description: The NaV1.8 blocking activity was determined by using a manual patch clamp technique to detect the effect of the subject on the channel currents of stably overexpressed Nav1.8.
CHO cell line stably expressing the Nav1.8 sodium channel was used for the experiments, gene information: sodium channel, voltage-gated, type 8, alpha (SCN10A), cDNA strictly similar to GenBank accession number: NM 006514.
Cells were cultured in HAM'S/F-12 medium containing 10% foetal bovine serum and 10 μg/mL Blasticidin, 200 μg/mL Hygromycin B, and 100 μg/mL Zeocin at 37° C., 5% CO2. For expansion or maintenance cultures, cells were treated with 0.25%-Trypsin-EDTA, washed and centrifuged, and then inoculated in 6-cm cell culture dishes with 2.5×10^5lls per cell culture dish (final volume: 5 mL).
Prior to the patch clamp detection, cells were separated with 0.25%-Trypsin-EDTA and 6.5×10^3 cells were spread onto coverslips and incubated (final volume: 500 μL) in 24-well plates for 18 hours, then the test was performed.
50 mM CsCl, 10 mM NaCl, 10 mM HEPES, 60 mM CsF, 20 mM EGTA, and pH was adjusted to 7.2 with CsOH. • Instrument information is provided in Table 2 below:
Prior to Nav1.8 channel current testing, a blank control solution (DMSO) was diluted into 10 ml of extracellular fluid as the working solution. Positive controls and subjects were first diluted with different doses of DMSO depending on the final concentration before being diluted as working solution using extracellular fluid. 100 nM TTX was added to each working solution to block the TTX-S current. The working solution was sonicated for 20 min before performing the patch clamp test detection.
Patch clamp manipulation: firstly, the capillary glass tube was drawn into a recording electrode using a microelectrode puller, then the electrode filled with intracellular fluid was loaded into the microelectrode holder, and the microelectrode manipulator was manoeuvred under an inverted microscope to immerse the electrode into the extracellular fluid and record the electrode resistance (Rpip). The electrode was then slowly contacted to the cell surface and negative pressure suction was given to form a GQ2 seal. At this time, fast capacitance compensation was performed and negative pressure was continually applied to suction through the cell membrane to form a whole-cell recording pattern. Finally, slow capacitance compensation was performed and experimental parameters such as series resistance (Rs) were recorded. No leakage compensation was given.
Drug administration was initiated when the Nav1.8 current was stabilized for whole-cell recordings, and the next concentration was detected after each drug concentration had acted for approximately 5 min (or until the current was stable). Cell-lined coverslips were placed in the recording bath under an inverted microscope, and the blank control external solution as well as the working solution of the compound to be tested flowed sequentially from low to high concentrations through the recording bath by using gravitational perfusion and thus acted on the cells, and a peristaltic pump was used to exchange fluids during the recording. The current detected by each cell in the compound-free external fluid served as its own control. Each concentration was repeated independently 2-3 times. All electrophysiological experiments were performed at room temperature.
The voltage stimulation scheme for whole-cell patch-clamp recording of Nav1.8 currents was as follows: when a whole-cell seal was formed, the voltage was clamped at −120 mV. The resting state recording of sodium currents was performed by maintaining the voltage for 5s and then depolarizing it to 0 mV, and then administering a depolarizing pulse (TP1) to 0 m V for 50 ms for detecting the resting state sodium currents. For half-inactivated state recording, the voltage was first stepped at different voltages and maintained for 5s and then a depolarizing pulse was given to 0 mV to detect the Vhalf. […]

[1] = human liver microsomes 0.2 mg/mL, substrate Phenacetin, read-out: IC50 (μM) CYP1A2

Chain of CYP1A2 (P05177 whole entry): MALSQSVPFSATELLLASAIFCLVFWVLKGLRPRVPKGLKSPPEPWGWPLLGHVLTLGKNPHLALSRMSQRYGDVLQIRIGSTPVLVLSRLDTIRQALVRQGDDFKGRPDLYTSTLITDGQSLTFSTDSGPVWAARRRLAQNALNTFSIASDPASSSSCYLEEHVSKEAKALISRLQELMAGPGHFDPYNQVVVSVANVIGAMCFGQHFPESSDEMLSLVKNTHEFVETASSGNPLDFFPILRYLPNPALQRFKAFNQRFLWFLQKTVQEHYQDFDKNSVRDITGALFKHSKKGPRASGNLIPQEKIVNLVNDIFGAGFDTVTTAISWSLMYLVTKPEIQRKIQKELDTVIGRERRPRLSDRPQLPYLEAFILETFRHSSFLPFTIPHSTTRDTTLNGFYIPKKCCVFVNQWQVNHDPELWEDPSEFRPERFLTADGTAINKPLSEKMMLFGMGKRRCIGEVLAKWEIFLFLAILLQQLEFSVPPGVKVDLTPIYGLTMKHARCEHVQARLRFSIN

With `COc1c([C@H]2[C@H](C(=O)Nc3cccc(S(N)(=O)=O)c3)N[C@@](C)(C(F)(F)F)[C@H]2C)ccc(F)c1F` [Compound 8, (2R,3S,4S,5R)-3-(3,4-difluoro-2-methoxyphenyl)-4,5-dimethyl-aza-(3-aminosulfonylphenyl)-5-(trifluoromethyl) pyrrolidine-2-carboxamide] the IC50 (CYP1A2; microsomes) was greater than 50 µM, the IC50 (CYP2D6) was 41.6 µM and the “Blocking rate (%) @3 nM” value (Nav1.8 sodium channel) was 93.13%. The “Blocking rate(%) @10 nM” value (Nav1.8 sodium channel) was 100.00%.
In the case of `COc1c([C@H]2[C@H](C(=O)Nc3ccnc(C(N)=O)c3)O[C@@](C)(C(F)(F)F)[C@H]2C)ccc(F)c1F` [VX-548, reference compound], the IC50 (CYP1A2; [1]) is reported as greater than 50 µM and the IC50 (CYP2D6) is reported as greater than 50 µM.
With `COc1c([C@H]2[C@H](C(=O)Nc3ccc[n+]([O-])c3)N[C@@](C)(C(F)(F)F)[C@H]2C)ccc(F)c1F` [Compound 7, 3-((2R,3S,4S,5R)-3-(3,4-difluoro-2-methoxyphenyl)-4,5-dimethyl-5-(trifluoromethyl)pyrrolidine-2-carboxamido)pyridine 1-oxide] the IC50 (CYP1A2; [1]) was greater than 50 µM, the IC50 (CYP2D6) was greater than 50 µM and the “Blocking rate (%) @3 nM” value (Nav1.8 sodium channel) was 67.34%. The “Blocking rate(%) @10 nM” value (Nav1.8 sodium channel) was 91.89%.
In the case of “4-((2R,3S,4S,5R)-3-(3,4-difluoro-2-(methoxy-d3)phenyl)-4,5-dimethyl-5-(trifluoromethyl) pyrrolidine-2-carboxamido)pyridinamide [Compound 11]”, the IC50 (CYP1A2; microsomes) is reported as greater than 50 µM, the IC50 (CYP2D6) is reported as greater than 50 µM and the “Blocking rate (%) @3 nM” value (Nav1.8 sodium channel) is reported as 90.26%. For the same compound, the “Blocking rate(%) @10 nM” value (Nav1.8 sodium channel) was 97.84% and the IC50 (Nav1.8 sodium channel) was 0.00073 µM.
